PMC11079029, “Intramolecular autoinhibition regulates the selectivity of PRPF40A tandem WW domains for proline-rich motifs” (Nature Communications, 2024)
Read-outs that look alike come from different tables or passages of the source.

Legend:
[1] = molecular target: T1, PRPF40A WW12 (tandem WW domains, residues 141–236) (Homo sapiens, UniProt O75400); experiment: ITC of PRPF40A WW12 with GB1-tagged proline-rich peptides and constructs; format: binding
T1 construct: WW12 141–236, WW12long 141–248, and N-ext-WW12 56–236; 6xHis-TEV site (N, cleaved yes); made in house; host or cells: Escherichia coli BL21(DE3)
Source text: (§1) PRPF40A isoform 1 sequences (N-ter 1–310, WW12short 141–223, WW12 141–236, WW12long 141–248, and N-ext-WW12 56–236) were amplified from a purchased DNA fragment (IDT) and cloned using NcoI and KpnI restriction sites into a pETM11 vector encoding 6xHis and TEV cleavage site as a N-terminal tag. SF1 (Pro A 410–468, Pro B 468–539, Pro C 539–594, Pro D 594–639, Pro BC 468–594, Pro CD 539–639, Pro BCD 468–639 and Pro ABCD 410–639) and SF3A1 (Middle Pro 364–413 and C-ter Pro 552–683) constructs were prepared in a similar manner using a pET24 vector with a 6xHis, GB1 and TEV cleavage site as N-terminal fusion cassette. 16-mer SF1 constructs (Table 1) and polyproline peptides (P6, P8, P10, P13, P16, P19, P22, P25, and P29) were cloned in the same pET24 vector with GB1 tag by direct ligation of purchased oligonucleotides (Eurofins). All peptide sequences contained N and C-terminal common residues to avoid boundary effects on binding: TEVsite-GAMSGS-peptide-SGSN. Mutants of PRPF40A WW12 and N-ext-WW12 constructs were prepared by site-directed mutagenesis. The truncated version of PRPF40A WW12 (141-217) was a gift from Dr. María Macías (IRB, Spain). All used oligonucleotides were purchased from Eurofins Genomics and are shown in Supplementary Table 6.
(§2) Resuspended cell pellets in 20 mM Tris pH 8.0, 500 mM NaCl, 10 mM imidazole, 0.5 mM TCEP, and protease inhibitors mix (SERVA) were lysed by cell disruption in a French press. Clear lysates, after centrifugation (at 18,000 g) and filtering, were loaded into Ni-NTA resin. The resin was then washed with 20 mM imidazole containing buffer, and the desired protein was eluted with 500 mM imidazole. PRPF40A constructs were then subjected to TEV protease treatment (homemade at a final concentration of ≈50 μg/ml), dialyzed overnight at 4 °C against an imidazole-free buffer, and then loaded again to Ni-NTA resin; desired digested proteins were obtained in the flow-through and wash fractions while uncleaved protein, TEV protease, and impurities remained bound to the resin. Cleaved PRPF40A proteins and GB1-tagged SF1, SF3A1, and polyproline constructs were further purified by size-exclusion chromatography on a HiLoad 16/60 Superdex 75 column (GE Healthcare) equilibrated with 20 mM sodium phosphate, pH 6.5, 100 mM NaCl and 1 mM DTT buffer. For the purification of PRPF40A WW12 in complex with SF1 peptide, cell pellets of recombinant expression for both proteins were mixed and processed together following the Ni-NTA—TEV digestion—reverse Ni-NTA—SEC-75 protocol; where the complex remained bound in a 1:1 stoichiometry throughout the whole purification (corroborated by NMR). Molecular weight of each sample was confirmed by mass spectrometry, purity was checked by PAGE-SDS, and protein concentrations were determined from the aromatic contribution to the UV absorbance spectra at 280 nm.
(§3) Experiments were conducted on a MicroCAl PEAQ-ITC (Malvern Instruments, UK) at 25 °C in 20 mM sodium phosphate pH 6.5 and 100 mM NaCl. PRPF40A was titrated into N-terminal GB1 tagged SF1 or polyproline constructs and vice versa with similar results. Protein concentrations in the cell were around 20–40 μM, while in the syringe ranged between 200 and 500 μM. Experiments were performed at least in duplicate with injections of 1.5 μL (0.4 μL for first point) separated by 150 s delays to recover thermal power baseline and continuous stirring in the cell (750 rpm) for correct mixing. The reference cell was filled with water in all experiments. Data were processed by removing the blank experiment (using digested GB1 fusion protein) and adjusted to one-site binding model with Malvern PEAQ-ITC Analysis software (Malvern Instruments, UK).

[2] = molecular target: T2, PRPF40A N-ext-WW12 (residues 56–236) (Homo sapiens, UniProt O75400); experiment: ITC of N-terminally extended WW12 with SF1 peptides; format: binding; conditions: for Kd: ITC
T2 construct: WW12long 141–248, and N-ext-WW12 56–236; 6xHis-TEV site (N, cleaved yes); made in house; host or cells: Escherichia coli BL21(DE3)
T2 sequence (O75400 56-236): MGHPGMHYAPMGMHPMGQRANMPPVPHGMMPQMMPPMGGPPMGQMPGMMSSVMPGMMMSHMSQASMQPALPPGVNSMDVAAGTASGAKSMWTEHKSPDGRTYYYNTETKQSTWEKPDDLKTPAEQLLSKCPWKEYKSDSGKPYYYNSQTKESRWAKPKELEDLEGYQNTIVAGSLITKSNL
Source text: as §1, §2, §3

PPLPPGAPPPPPPPPP [SF1WWbs]
N (sites) ([1]; ITC as E1, peptide in the cell, WW tandem in the syringe, N >1 = more than one WW tandem per peptide): 1.00 ± 0.03 sites
DH ([1]; ITC binding enthalpy, as E1): -19.6 ± 0.406 kcal/mol
Kd (µM) ([1]; ITC, 25 °C, 20 mM sodium phosphate pH 6.5, 100 mM NaCl, GB1-tagged polyproline or SF1 16-mer peptide in the cell, WW tandem in the syringe, one-site model, apparent Kd, average of at least duplicates): low micromolar range
Kd ([1]; ITC, SF1 peptides, individual value 1 (replicate 1), read-out: Kd Values with WW12, individual value): 1290 nM
Kd ([1]; ITC, SF1 peptides, individual value 2 (replicate 2), read-out: Kd Values with WW12, individual value): 1240 nM
Kd ([1]; ITC, SF1 peptides, individual value 3 (replicate 3), read-out: Kd Values with WW12, individual value): 1620 nM
Kd ([1]; ITC, SF1 peptides, individual value 5 (replicate 5), read-out: Kd Values with WW12, individual value): 1290 nM
Kd ([1]; ITC, mean over the peptides of the classification group, read-out: Kd Values with WW12, averaged group): 1400 nM
N (sites) ([2]; ITC as E7): 0.88 ± 0.03 sites
DH ([2]; ITC binding enthalpy, as E7): -15.8 ± 0.884 kcal/mol
Kd ([2]; 25 °C, 20 mM sodium phosphate pH 6.5, 100 mM NaCl, GB1-tagged SF1 16-mer, N-terminally extended WW12, at least duplicates, listed as 575 PPLPPGAPPPPPPPPP 590, read-out: Kd): 8710 ± 880 nM
Kd ([2]; 25 °C, 20 mM sodium phosphate pH 6.5, 100 mM NaCl, GB1-tagged SF1 16-mer, N-terminally extended WW12, at least duplicates, read-out: Kd): < 10000 nM
Kd ([2]; SF1 peptides, individual value 1 (replicate 1), read-out: Kd Values with Nter Ext WW12, individual value): 9190 nM
Kd ([2]; SF1 peptides, individual value 2 (replicate 2), read-out: Kd Values with Nter Ext WW12, individual value): 8220 nM
